#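 Following 48 hours of exposure in 96-well plates, responses at five concentrations were used to interpolate endpoints linearly. Abbreviation: GI50, concentration required for 50% inhibition of growth. TGI marks complete inhibition of growth.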
# Legend:
# Assay in all cases: NCI tumour cell line growth inhibition, 48 h
# KM12 colon = tested on: KM12 colon
# 786-0 renal = tested on: 786-0 renal
# COLO 205 colon = tested on: COLO 205 colon
# U251 CNS = tested on: U251 CNS
# HCT-15 colon = tested on: HCT-15 colon
# SN12C renal = tested on: SN12C renal
# LOX IMVI melanoma = tested on: LOX IMVI melanoma
# MOLT-4 leukemia = tested on: MOLT-4 leukemia
# OVCAR-3 ovarian = tested on: OVCAR-3 ovarian
# UO-31 renal = tested on: UO-31 renal
SMILES,GI50 (KM12 colon) [µM],TGI (KM12 colon) [µM],GI50 (786-0 renal) [µM],TGI (786-0 renal) [µM],GI50 (COLO 205 colon) [µM],TGI (COLO 205 colon) [µM],GI50 (U251 CNS) [µM],TGI (U251 CNS) [µM],GI50 (HCT-15 colon) [µM],TGI (HCT-15 colon) [µM],GI50 (SN12C renal) [µM],TGI (SN12C renal) [µM],GI50 (LOX IMVI melanoma) [µM],TGI (LOX IMVI melanoma) [µM],GI50 (MOLT-4 leukemia) [µM],TGI (MOLT-4 leukemia) [µM],GI50 (OVCAR-3 ovarian) [µM],TGI (OVCAR-3 ovarian) [µM],GI50 (UO-31 renal) [µM],TGI (UO-31 renal) [µM]
O=C1c2ccc3c4c(ccc(c24)C(=O)N1CCNCc1ccccc1)C(=O)N(CCNCc1ccccc1)C3=O,1.69,3.31,1.89,3.59,1.65,3.01,2.02,5.42,1.43,2.92,1.63,3.05,1.67,3.16,3.96,> 100,1.91,4.16,–,–
CCCCCCCCCCCCCCCCCC[S+](C)CC (stereo unspecified),1.14,2.45,1.25,2.66,1.42,2.81,–,–,2.84,16.9,1.86,4.44,–,–,–,–,1.08,2.33,1.2,2.62
COC(=O)[C@]12CC[C@@H](C)[C@H](C)[C@@H]1C1=CC[C@@H]3[C@@](C)(CC#N)C4=C(C[C@@]3(C)[C@]1(C)CC2)OC[C@]4(C)C=O,6.46,62.9,11.6,71.1,14.4,29.6,3.61,19.2,3.1,23.2,–,–,3.11,13.3,2.1,6.89,3.41,12.2,3.07,39.5
CN1C2(c3ccccc3)C(C(=O)c3ccccc3)=C(C(=O)c3ccccc3)C1(c1ccccc1)c1c(-c3ccccc3)sc(-c3ccccc3)c12,–,> 100,–,> 100,–,> 100,–,> 100,–,> 100,–,> 100,–,> 100,–,–,–,> 100,–,> 100
O=c1/c(=C\c2ccc(Br)cc2)sc2n1C(c1ccc(Br)cc1)C1=C(N=2)c2ccc3ccccc3c2OCC1 (stereo unspecified),> 100,> 100,> 100,> 100,> 100,> 100,> 100,> 100,> 100,> 100,–,–,> 100,> 100,> 100,> 100,> 100,> 100,> 100,> 100
COC1C(=O)CCC2(CO2)C1(O)C1(C)OC1CC=C(C)C (stereo unspecified),–,> 100,–,> 100,–,> 100,–,> 100,–,> 100,–,> 100,–,–,–,83.2,–,> 100,–,> 100
O=C(Cc1nc2ccccc2o1)C(=O)Nc1ccc(Cl)cc1Cl,–,–,–,> 100,–,> 100,–,> 100,–,> 100,–,> 100,–,–,–,–,–,> 100,–,> 100
Cc1c(C(=O)c2ccccc2)[n+](=O)c2cc(F)c(F)cc2n1[O-],11.4,25,16.6,31.2,3.31,11.5,1.71,3.08,0.511,1.64,–,–,1.61,3.01,1.04,80.4,1.53,3.04,2.04,4.13

# Reference: PubChem BioAssay (NCI)
